#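 Each compound was tested at five concentrations against cells in 96-well plates for 48 hours. GI50: concentration for 50% inhibition of growth. TGI marks complete inhibition of growth.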
# What was measured:
# Experiment in all cases: DTP human tumour cell line panel, 48 h
# HOP-62 NSCLC = system: HOP-62 NSCLC
# MALME-3M melanoma = system: MALME-3M melanoma
# SNB-75 CNS = system: SNB-75 CNS
# HS 578T breast = system: HS 578T breast
# MOLT-4 leukemia = system: MOLT-4 leukemia
# SN12C renal = system: SN12C renal
# KM12 colon = system: KM12 colon
# BT-549 breast = system: BT-549 breast
# OVCAR-3 ovarian = system: OVCAR-3 ovarian
# HOP-92 NSCLC = system: HOP-92 NSCLC
# UACC-257 melanoma = system: UACC-257 melanoma
# NCI-H460 lung = system: NCI-H460 lung
# DU-145 prostate = system: DU-145 prostate
# HT29 colon = system: HT29 colon
# NCI/ADR-RES ovarian = system: NCI/ADR-RES ovarian
# UO-31 renal = system: UO-31 renal
# TK-10 renal = system: TK-10 renal
# A549 NSCLC = system: A549 NSCLC
# SK-MEL-5 melanoma = system: SK-MEL-5 melanoma
# UACC-62 melanoma = system: UACC-62 melanoma
# COLO 205 colon = system: COLO 205 colon
# SK-MEL-28 melanoma = system: SK-MEL-28 melanoma
# NCI-H226 lung = system: NCI-H226 lung
# SNB-19 CNS = system: SNB-19 CNS
# SK-MEL-2 melanoma = system: SK-MEL-2 melanoma
# HL-60(TB) leukemia = system: HL-60(TB) leukemia
# OVCAR-4 ovarian = system: OVCAR-4 ovarian
# MDA-MB-435 = system: MDA-MB-435
# HCT-116 colon = system: HCT-116 colon
# M14 melanoma = system: M14 melanoma
# CCRF-CEM leukemia = system: CCRF-CEM leukemia
# SR leukemia = system: SR leukemia
# SK-OV-3 ovarian = system: SK-OV-3 ovarian
# OVCAR-8 ovarian = system: OVCAR-8 ovarian
# A498 renal = system: A498 renal
# PC-3 prostate = system: PC-3 prostate
# ACHN renal = system: ACHN renal
# HCC-2998 colon = system: HCC-2998 colon
# SF-539 CNS = system: SF-539 CNS
# HCT-15 colon = system: HCT-15 colon
# RPMI-8226 leukemia = system: RPMI-8226 leukemia
# NCI-H522 lung = system: NCI-H522 lung
# NCI-H23 lung = system: NCI-H23 lung
# LOX IMVI melanoma = system: LOX IMVI melanoma
# SW-620 colon = system: SW-620 colon
# RXF 393 renal = system: RXF 393 renal
# SF-268 CNS = system: SF-268 CNS
# OVCAR-5 ovarian = system: OVCAR-5 ovarian
# CAKI-1 renal = system: CAKI-1 renal
# IGROV1 ovarian = system: IGROV1 ovarian
# U251 CNS = system: U251 CNS
# SF-295 CNS = system: SF-295 CNS
# 786-0 renal = system: 786-0 renal
# MCF7 breast = system: MCF7 breast
# EKVX NSCLC = system: EKVX NSCLC
# T-47D breast = system: T-47D breast
# K-562 leukemia = system: K-562 leukemia
# MDA-MB-231 breast = system: MDA-MB-231 breast
smiles,measurement,setting,value
COc1ccc2nc3cc(Cl)ccc3c(N3CCN(c4ccnc(N5CCN(C)CC5)n4)CC3)c2c1,GI50,HOP-62 NSCLC,3.51 µM
same,TGI,HOP-62 NSCLC,12.4 µM
same,GI50,MALME-3M melanoma,2.2 µM
same,TGI,MALME-3M melanoma,4 µM
same,GI50,SNB-75 CNS,1.47 µM
same,TGI,SNB-75 CNS,3.05 µM
same,GI50,HS 578T breast,2.7 µM
same,TGI,HS 578T breast,8.29 µM
same,GI50,MOLT-4 leukemia,2.38 µM
same,TGI,MOLT-4 leukemia,5.81 µM
same,GI50,SN12C renal,2.84 µM
same,TGI,SN12C renal,8.37 µM
same,GI50,KM12 colon,2.09 µM
same,TGI,KM12 colon,4.38 µM
same,GI50,BT-549 breast,3.16 µM
same,TGI,BT-549 breast,13.4 µM
same,GI50,OVCAR-3 ovarian,1.84 µM
same,TGI,OVCAR-3 ovarian,3.25 µM
same,GI50,HOP-92 NSCLC,1.59 µM
same,TGI,HOP-92 NSCLC,3.36 µM
same,GI50,UACC-257 melanoma,11.4 µM
same,TGI,UACC-257 melanoma,24.4 µM
same,GI50,NCI-H460 lung,2.29 µM
same,TGI,NCI-H460 lung,5.43 µM
same,GI50,DU-145 prostate,1.84 µM
same,TGI,DU-145 prostate,3.36 µM
same,GI50,HT29 colon,1.74 µM
same,TGI,HT29 colon,3.67 µM
same,GI50,NCI/ADR-RES ovarian,3.66 µM
same,TGI,NCI/ADR-RES ovarian,12.4 µM
same,GI50,UO-31 renal,1.77 µM
same,TGI,UO-31 renal,3.41 µM
same,GI50,TK-10 renal,1.76 µM
same,TGI,TK-10 renal,3.2 µM
same,GI50,A549 NSCLC,14.8 µM
same,TGI,A549 NSCLC,36 µM
same,GI50,SK-MEL-5 melanoma,11.3 µM
same,TGI,SK-MEL-5 melanoma,28 µM
same,GI50,UACC-62 melanoma,1.86 µM
same,TGI,UACC-62 melanoma,3.69 µM
same,GI50,COLO 205 colon,1.94 µM
same,TGI,COLO 205 colon,3.67 µM
same,GI50,SK-MEL-28 melanoma,1.73 µM
same,TGI,SK-MEL-28 melanoma,3.29 µM
same,GI50,NCI-H226 lung,49.6 µM
same,TGI,NCI-H226 lung,> 100 µM
same,GI50,SNB-19 CNS,2.23 µM
same,TGI,SNB-19 CNS,5.44 µM
same,GI50,SK-MEL-2 melanoma,3.72 µM
same,TGI,SK-MEL-2 melanoma,12.2 µM
same,GI50,HL-60(TB) leukemia,2.14 µM
same,TGI,HL-60(TB) leukemia,5.03 µM
same,GI50,OVCAR-4 ovarian,1.61 µM
same,TGI,OVCAR-4 ovarian,3.02 µM
same,GI50,MDA-MB-435,1.79 µM
same,TGI,MDA-MB-435,3.66 µM
same,GI50,HCT-116 colon,1.61 µM
same,TGI,HCT-116 colon,3.05 µM
same,GI50,M14 melanoma,2.04 µM
same,TGI,M14 melanoma,4.06 µM
same,GI50,CCRF-CEM leukemia,1.61 µM
same,TGI,CCRF-CEM leukemia,4.15 µM
same,GI50,SR leukemia,2.19 µM
same,TGI,SR leukemia,5.94 µM
same,GI50,SK-OV-3 ovarian,12.9 µM
same,TGI,SK-OV-3 ovarian,26.2 µM
same,GI50,OVCAR-8 ovarian,1.93 µM
same,TGI,OVCAR-8 ovarian,3.98 µM
same,GI50,A498 renal,10.3 µM
same,TGI,A498 renal,40.7 µM
same,GI50,PC-3 prostate,1.92 µM
same,TGI,PC-3 prostate,3.87 µM
same,GI50,ACHN renal,1.75 µM
same,TGI,ACHN renal,3.33 µM
same,GI50,HCC-2998 colon,1.99 µM
same,TGI,HCC-2998 colon,3.69 µM
same,GI50,SF-539 CNS,1.77 µM
same,TGI,SF-539 CNS,3.3 µM
same,GI50,HCT-15 colon,1.6 µM
same,TGI,HCT-15 colon,3.21 µM
same,GI50,RPMI-8226 leukemia,2.04 µM
same,TGI,RPMI-8226 leukemia,4.84 µM
same,GI50,NCI-H522 lung,1.61 µM
same,TGI,NCI-H522 lung,3.13 µM
same,GI50,NCI-H23 lung,2.02 µM
same,TGI,NCI-H23 lung,4.17 µM
same,GI50,LOX IMVI melanoma,1.89 µM
same,TGI,LOX IMVI melanoma,3.45 µM
same,GI50,SW-620 colon,1.8 µM
same,TGI,SW-620 colon,3.53 µM
same,GI50,RXF 393 renal,1.36 µM
same,TGI,RXF 393 renal,2.78 µM
same,GI50,SF-268 CNS,1.99 µM
same,TGI,SF-268 CNS,3.89 µM
same,GI50,OVCAR-5 ovarian,1.81 µM
same,TGI,OVCAR-5 ovarian,3.9 µM
same,GI50,CAKI-1 renal,1.57 µM
same,TGI,CAKI-1 renal,3.07 µM
same,GI50,IGROV1 ovarian,2.24 µM
same,TGI,IGROV1 ovarian,5.08 µM
same,GI50,U251 CNS,1.77 µM
same,TGI,U251 CNS,3.43 µM
same,GI50,SF-295 CNS,19.5 µM
same,TGI,SF-295 CNS,54.1 µM
same,GI50,786-0 renal,1.61 µM
same,TGI,786-0 renal,3 µM
O=C1c2ccccc2C(=O)c2c1cc1c(c2[N+](=O)[O-])OCO1,GI50,HOP-62 NSCLC,1.74 µM
same,TGI,HOP-62 NSCLC,5.19 µM
same,GI50,MALME-3M melanoma,2.81 µM
same,TGI,MALME-3M melanoma,8.9 µM
same,GI50,SNB-75 CNS,1.44 µM
same,TGI,SNB-75 CNS,3.46 µM
same,GI50,HS 578T breast,2.28 µM
same,TGI,HS 578T breast,6.02 µM
same,GI50,MOLT-4 leukemia,0.794 µM
same,TGI,MOLT-4 leukemia,> 100 µM
same,GI50,SN12C renal,1.73 µM
same,TGI,SN12C renal,8.05 µM
same,GI50,KM12 colon,1.45 µM
same,TGI,KM12 colon,5.94 µM
same,GI50,OVCAR-3 ovarian,1.43 µM
same,TGI,OVCAR-3 ovarian,4.77 µM
same,GI50,HOP-92 NSCLC,1.27 µM
same,TGI,HOP-92 NSCLC,3.75 µM
same,GI50,MCF7 breast,1 µM
same,TGI,MCF7 breast,7.29 µM
same,GI50,UACC-257 melanoma,11.8 µM
same,TGI,UACC-257 melanoma,41.5 µM
same,GI50,NCI-H460 lung,2.11 µM
same,TGI,NCI-H460 lung,7.06 µM
same,GI50,DU-145 prostate,2.58 µM
same,TGI,DU-145 prostate,8.43 µM
same,GI50,HT29 colon,4.24 µM
same,TGI,HT29 colon,22 µM
same,GI50,NCI/ADR-RES ovarian,1.15 µM
same,TGI,NCI/ADR-RES ovarian,8.87 µM
same,GI50,UO-31 renal,1.54 µM
same,TGI,UO-31 renal,6.02 µM
same,GI50,TK-10 renal,2.38 µM
same,TGI,TK-10 renal,6.39 µM
same,GI50,A549 NSCLC,4.94 µM
same,TGI,A549 NSCLC,21.9 µM
same,GI50,SK-MEL-5 melanoma,3.48 µM
same,TGI,SK-MEL-5 melanoma,11.7 µM
same,GI50,COLO 205 colon,3.46 µM
same,TGI,COLO 205 colon,16.8 µM
same,GI50,SK-MEL-28 melanoma,3.52 µM
same,TGI,SK-MEL-28 melanoma,26.6 µM
same,GI50,EKVX NSCLC,2.92 µM
same,TGI,EKVX NSCLC,9.8 µM
same,GI50,NCI-H226 lung,2.06 µM
same,TGI,NCI-H226 lung,7.16 µM
same,GI50,SNB-19 CNS,2.55 µM
same,TGI,SNB-19 CNS,14.4 µM
same,GI50,SK-MEL-2 melanoma,2.56 µM
same,TGI,SK-MEL-2 melanoma,5.14 µM
same,GI50,HL-60(TB) leukemia,0.465 µM
same,TGI,HL-60(TB) leukemia,8.94 µM
same,GI50,OVCAR-4 ovarian,1.2 µM
same,TGI,OVCAR-4 ovarian,4.85 µM
same,GI50,MDA-MB-435,2.91 µM
same,TGI,MDA-MB-435,9.58 µM
same,GI50,T-47D breast,0.551 µM
same,TGI,T-47D breast,6.33 µM
same,GI50,HCT-116 colon,0.641 µM
same,TGI,HCT-116 colon,4.44 µM
same,GI50,M14 melanoma,3.78 µM
same,TGI,M14 melanoma,16.9 µM
same,GI50,K-562 leukemia,0.621 µM
same,TGI,K-562 leukemia,6.26 µM
same,GI50,CCRF-CEM leukemia,0.492 µM
same,TGI,CCRF-CEM leukemia,> 100 µM
same,GI50,SR leukemia,0.242 µM
same,TGI,SR leukemia,1.55 µM
same,GI50,OVCAR-8 ovarian,1.68 µM
same,TGI,OVCAR-8 ovarian,10.3 µM
same,GI50,A498 renal,0.0824 µM
same,TGI,A498 renal,2.38 µM
same,GI50,PC-3 prostate,1.29 µM
same,TGI,PC-3 prostate,4.66 µM
same,GI50,ACHN renal,0.248 µM
same,TGI,ACHN renal,1.3 µM
same,GI50,HCC-2998 colon,1.5 µM
same,TGI,HCC-2998 colon,4 µM
same,GI50,SF-539 CNS,1.71 µM
same,TGI,SF-539 CNS,6.31 µM
same,GI50,HCT-15 colon,2.15 µM
same,TGI,HCT-15 colon,8.82 µM
same,GI50,RPMI-8226 leukemia,0.267 µM
same,TGI,RPMI-8226 leukemia,0.916 µM
same,GI50,NCI-H522 lung,2.01 µM
same,TGI,NCI-H522 lung,4.68 µM
same,GI50,NCI-H23 lung,2.4 µM
same,TGI,NCI-H23 lung,8.29 µM
same,GI50,LOX IMVI melanoma,1.43 µM
same,TGI,LOX IMVI melanoma,4.92 µM
same,GI50,SW-620 colon,0.68 µM
same,TGI,SW-620 colon,11.5 µM
same,GI50,RXF 393 renal,0.506 µM
same,TGI,RXF 393 renal,2.04 µM
same,GI50,SF-268 CNS,1.46 µM
same,TGI,SF-268 CNS,7.73 µM
same,GI50,MDA-MB-231 breast,1.45 µM
same,TGI,MDA-MB-231 breast,6.79 µM
same,GI50,OVCAR-5 ovarian,2.39 µM
same,TGI,OVCAR-5 ovarian,8.74 µM
same,GI50,CAKI-1 renal,0.556 µM
same,TGI,CAKI-1 renal,4.51 µM
same,GI50,IGROV1 ovarian,1.21 µM
same,TGI,IGROV1 ovarian,7.62 µM
same,GI50,U251 CNS,2.15 µM
same,TGI,U251 CNS,7.72 µM
same,GI50,SF-295 CNS,2.27 µM
same,TGI,SF-295 CNS,8.82 µM
